What all share (format): cell-based
The subject of one test is A. nosocomialis M2. The experiment in a line: MIC by broth microdilution AST. The conditions noted are these: for MIC: microdilution from pure culture; for MIC (S/I/R): class according to 2016 CLSI handbook. Here is the method:
(§1) Varied counts of bacteria were mixed with human blood and diluted 1:9 (v/v) with bacterial growth medium to desired bacterial concentrations (<10 CFU/mL final solution) and plated to independently confirm CFU/mL blood. Saponin was immediately added and the samples shaken for 15 minutes to achieve selective blood cell lysis. After hemolysis, bacteria were spun down and washed with PBS. The pellets were resuspended in bacterial growth medium and incubated at 37° C. for 2 hours, followed by another 3-hour incubation with antibiotics at various fractions of the minimum inhibition concentration (MIC, as independently determined by microdilution from the pure starting culture, Table 1) for sensitive strains or at the CLSI MIC resistant breakpoints^(12) for the highly resistant strains. Changes in scattered light signals largely resulting from bacterial growth inhibition were monitored by flow cytometry, and the difference in the 2-D scatter histograms with and without antibiotic treatment was quantified with PB-sQF statistics.^(1) Using PB-sQF, distance was calculated for each antibiotic concentration relative to its own no-antibiotic control and expressed as “fold distance” relative to the 99% confidence limit distance between the no-antibiotic control and the sensitive breakpoint. This allowed comparison of fold distances among all samples as each is individually paired to its own control, as is each replicate.
(§2) All clinical isolates (E. coli strains Mu14S and Mu890, K. pneumoniae strains Mu670 and Mu55, A. nosocomialis strains M2) were obtained from the Georgia Emerging Infection Program (GEIP). The MIC of each isolate was determined by a clinical microbiology laboratory using post blood culture automated AST and confirmed using broth microdilution in our laboratory. The MICs of each strain were measured to be as follows. For A. nosocomialis strain M2, 1 μg/mL tetracycline, 2 μg/mL gentamicin, and >1024 μg/mL ampicillin. For E. coli strain Mu890, 1 μg/mL tetracycline, 8 μg/mL gentamicin, and >1024 μg/mL ampicillin. For E. coli strain Mu14S, >64 μg/mL tetracycline, 8 μg/mL gentamicin, and >1024 μg/mL ampicillin. For K. pneumoniae strain Mu55, >64 μg/mL tetracycline, 1 μg/mL gentamicin, and >1024 μg/mL ampicillin. For K. pneumoniae strain Mu670, 2 μg/mL tetracycline, 4 μg/mL gentamicin, and >1024 μg/mL ampicillin.

A further test concerns E. coli Mu14S. Kind of test: MIC by broth microdilution AST. The settings on record: for MIC: microdilution from pure culture; for MIC (S/I/R): class according to 2016 CLSI handbook. How it is done:
as §1, §2
On the technique in general: Dilution methods test growth across graded concentrations, often in twofold steps.

Another test relates to E. coli Mu890. Kind of test: MIC by broth microdilution AST. The conditions noted are these: for MIC (S/I/R): class according to 2016 CLSI handbook; for MIC: microdilution from pure culture. Here is the method: as §1, §2
For a further test, the system named is K. pneumoniae Mu55. The experiment in a line: MIC by broth microdilution AST. The settings on record: for MIC: microdilution from pure culture; for MIC (S/I/R): class according to 2016 CLSI handbook. Here is the method:
as §1, §2

The next test relates to K. pneumoniae Mu670. The experiment in a line: MIC by broth microdilution AST. The conditions noted are these: for MIC: microdilution from pure culture; for MIC (S/I/R): class according to 2016 CLSI handbook. Here is the method:
as §1, §2

The next test deals with E. coli strain Mu14S. Kind of test: FAST flow cytometry AST with PB-sQF, bacteria recovered from 10% human blood. The settings on record: Mu14S treated at each resistant breakpoint (tetracycline 16 μg/mL). How it is done:
as §1
(§3) To simulate a blood specimen from a patient with bacteremia, the isolates were grown, diluted to the desired CFU/mL in blood (ZenBio, Research Triangle Park, NC) and saponin was added to achieve the final diluted sample. Initial bacterial cultures were prepared using Luria-Bertani (LB) broth for (E. coli) or cation-adjusted Mueller-Hinton broth (CAMHB). The fresh bacterial cultures started from ˜0.05 optical density (OD) by inoculating a 6-mL fresh growth medium with overnight culture were grown in an incubator shaker (MaxQ 4000, Thermal Fisher Scientific, Waltham, MA) at 37° C. and 225 rpm. After the culture reached mid-log phase, bacteria were collected and diluted into ˜10 CFU/mL through serial 10-fold dilutions. Bacterial densities were determined by plating onto LB plates. The final 10-fold dilution was performed by adding 500 μL of 100 CFU/mL into 4500 μL of 10% human blood in medium.
(§4) A 2.5% (w/v) of saponin solution was prepared, sonicated (Branson 2510, Emerson, St. Louis, MO) for 20 minutes and spun down with a clinical centrifuge (Centrific Model 228, Fisher Scientific, Waltham, MA) for 4 minutes. The supernatant cleared of particulates was collected. 500 μL of 2.5% saponin was then added to the 5 mL of 10% human blood sample with ˜10 CFU/mL, described above and the mixtures were shaken at 300 rpm for 15 minutes at 37° C. After the saponin treatment, the bacteria were pelleted and washed with 2 mL of phosphate buffered saline (PBS) (Life Technologies, Carlsbad, CA) using a clinical centrifuge for 2 minutes. Bacterial growth medium (2.5 mL) was then added to the tube and incubated for 2 hours at 37° C. and 225 rpm.
(§5) After the 2-hour incubation, 500-μL aliquots of the suspension were added to each of 4 wells in a 12-well microtiter plate that contained 500 μL of growth medium with or without antibiotic at 2-fold of specified concentrations. The plate was then incubated at 37° C. for 3 hours. Bacteria were collected by centrifugation (Centrifuge 5417R, Eppendorf) and resuspended in 200 μL of PBS for flow cytometry detection. To ensure each clinical isolate was tested at its MIC values of the tested antibiotics, the initial bacterial cultures at the 1000 CFU/mL dilution were also tested for each experiment (FIGS. 4A-4F, 5A-5F, 7A-7F, 8A-8F, and 9A-9F), confirming that the antibiotic concentrations indeed inhibited bacterial growth.
(§6) Cytometric data were collected by BD LSRFortessa flow cytometer (Becton Dickinson, Franklin Lake, NY) equipped with a 100 mW, 488 nm laser for the scatter signal. […]
On the technique in general: Flow cytometry measures light scatter and fluorescence of single cells or particles in a stream.

Another test concerns E. coli strain Mu890. The description is as above. The conditions noted are these: Mu890 treated with 32 μg/mL (Enterobacteriaceae resistance breakpoint), vs no-antibiotic control. How it is done: as §1, §3, §4, §5, §6
Test [1] deals with A. nosocomialis strain M2. The description is as above. The settings on record: M2 spiked in 10% human blood, assayed within 8 hrs of simulated blood draw.
Experimental: Varied counts of bacteria were mixed with human blood and diluted 1:9 (v/v) with bacterial growth medium to desired bacterial concentrations (<10 CFU/mL final solution) and plated to independently confirm CFU/mL blood. Saponin was immediately added and the samples shaken for 15 minutes to achieve selective blood cell lysis. After hemolysis, bacteria were spun down and washed with PBS. […] This allowed comparison of fold distances among all samples as each is individually paired to its own control, as is each replicate.
To simulate a blood specimen from a patient with bacteremia, the isolates were grown, diluted to the desired CFU/mL in blood (ZenBio, Research Triangle Park, NC) and saponin was added to achieve the final diluted sample. Initial bacterial cultures were prepared using Luria-Bertani (LB) broth for (E. coli) or cation-adjusted Mueller-Hinton broth (CAMHB). The fresh bacterial cultures started from ˜0.05 optical density (OD) by inoculating a 6-mL fresh growth medium with overnight culture were grown in an incubator shaker (MaxQ 4000, Thermal Fisher Scientific, Waltham, MA) at 37° C. and 225 rpm. […] Bacterial densities were determined by plating onto LB plates. […]
Cytometric data were collected by BD LSRFortessa flow cytometer (Becton Dickinson, Franklin Lake, NY) equipped with a 100 mW, 488 nm laser for the scatter signal. […] Data were recorded with FACSDiVa provided by BD. […]
In test [2] the test system is 10% human blood samples without bacteria inoculation. The experiment in a line: Antibiotic-treated 10% human blood only control (no bacteria), flow cytometry. The settings on record: 10% human blood without bacteria, around the resistance breakpoints of Enterobacteriaceae. How it is done: FIGS. 6A-6D. Antibiotic-treated 10% human blood only results. Cytometric data with (FIG. 6A) Ampicillin (FIG. 6B) Tetracycline (FIG. 6C) Gentamicin. The greyscale plots are the no-antibiotic controls and the black contour plots are the antibiotic-treated data with the antibiotic concentration indicated at each plot. (FIG. 6D) PB-sQF results for FIGS. 6A-6C). […] For each antibiotic, the resistant breakpoints of Enterobacteriaceae are 16 μg/mL for tetracycline and gentamicin and 32 μg/mL for ampicillin.
This confirms that the gentamicin sensitivity of Mu14S observed after blood culture^(1) can also be observed on much shorter timescales with FAST. Overnight plating confirms that initial Mu14S counts were 3, 2, 5 and CFU/mL for tetracycline, gentamicin and ampicillin data after 10-fold dilution of the blood/bacteria mixture, corresponding to FAST being performed on whole blood samples containing ˜30, ˜20 and ˜50 CFU/mL. […] Thus, diluting bacterimic blood specimens 1:9 (v:v) directly into saponin-containing growth medium provides a path to ASTs within 8 hours from initial blood draw, with excellent results matching independent (36-44 hrs) MIC determinations from pure, overnight cultures (˜10^8 CFU/mL) that could only be initiated after (˜24 hr) positive blood culture.

Test [3] relates to E. coli strain ATCC 33456. Kind of test: MIC of lab strain E. coli.
In test [4] the test system is Lab-strain E. coli (ATCC). Kind of test: FAST with low bacterial counts (500 counts by flow cytometry). The conditions noted are these: each antibiotic at MIC, ¼ MIC and 1/16 MIC, bars beyond the 99% confidence line. From the text:
FIG. 14. Bactericidal Antibiotic-induced changes for low counts of E. coli. Lab-strain E. coli (ATCC) ASTs performed with 500 counts by flow cytometry with gentamicin (Gen), penicillin G (PenG), and tetracycline (Tet) each at MIC, ¼ MIC and 1/16 MIC. This strain is seen to be sensitive to all three antibiotics, as the bars extend beyond the 99% confidence line.
While both morphology and growth inhibition occur upon exposure to antibiotics near the minimum inhibitory concentration, standard ASTs are based on growth inhibition alone. The presence of bacteria is clearly indicated by the presence of a particular scattering peak in the multidimensional histogram. This is much more sensitive and less affected by background than is shifts in a peak resulting from morphological changes upon antibiotic exposure. […] For even a few hundred counts, the presence of a bacterial population can be readily assessed with flow cytometry, but error bars and statistical distances must be properly determined relative to no-antibiotic controls. When too few counts for triplicate runs exist, control and each antibiotic exposure histograms are treated as probability distributions that are representative of the true mother distribution for each condition. Each histogram is binned (either adaptively with probability binning or using regular bins) and the distribution of data within each bin is determined. […]

Test [5] deals with E. coli strain ATCC 33456. Kind of test: Pre-blood culture AST with sheep blood, flow cytometry and PB-sQF. Here is the method: (§7) To search for the condition to separate bacteria from the blood cells, sheep blood was used as a substitute for human blood. In order to remove the blood cells that have a concentration that is 10^6 to 10^7 times higher than the bacteria, 100 μL of 10% (w/v) saponin was added to 1 mL of sheep blood that was spiked with either 100 μL of LB or 10^4 CFU/mL E. coli strain ATCC 33456 (final concentration ˜10^3 CFU/mL) and incubated for 15 minutes at room temperature to lyse the blood cells. The same procedure was applied to 12 samples loaded in eppendorf tubes. These samples were then washed with PBS and resuspended in 500 μL L B broth. All 12 samples were added to the 12-well plate loaded with 480 μL of LB broth and/or penicillin g with 2× higher desired concentrations and 20 μL, 45 μM of MH-IR786. The plate was incubated for 5 hours. Each sample was then collected and analyzed by flow cytometry.

Another test relates to 100% sheep blood only. The experiment in a line: Pre-blood culture AST, 100% sheep blood only samples. The conditions noted are these: no-antibiotic to 1×MIC. Here is the method: as §7
Setting [6] is: Acinetobacter nosocomialis, read-out: MIC.
Where [7] appears, read: Escherichia coli, read-out: MIC.
Setting [8] is: Escherichia coli, MU890, E. coli Mu890, read-out: MIC.
[9] abbreviates: Klebsiella pneumoniae, read-out: MIC.

These results are taken from patent US12061143B2, “Methods for rapid determinations of antibiotic susceptibility phenotypes” (priority 2018, dated 2024).

Converted amounts (≈) assume the structure as drawn. Like-named read-outs stand apart in the source and are kept apart here.

Usually MIC stands for the lowest concentration found to suppress growth.

With `CC1(C)S[C@@H]2[C@H](NC(=O)[C@H](N)c3ccccc3)C(=O)N2[C@H]1C(=O)O` [Ampicillin], the MIC in the test with A. nosocomialis M2 (setting [6]) was greater than 1020 µg/mL; in the test on A. nosocomialis M2, greater than 1024 µg/mL; in the test on E. coli Mu14S (setting [7]) it was greater than 1020 µg/mL; in the test on E. coli Mu14S it was greater than 1024 µg/mL; in the test with E. coli Mu890 (setting [8]), greater than 1020 µg/mL; with K. pneumoniae Mu55 (setting [9]), greater than 1020 µg/mL. The MIC was greater than 1024 µg/mL against K. pneumoniae Mu55, greater than 1020 µg/mL in the test on K. pneumoniae Mu670 (setting [9]) and greater than 1024 µg/mL against K. pneumoniae Mu670. The “MIC (S/I/R)” value against A. nosocomialis M2, in the test on E. coli Mu14S, with E. coli Mu890 (E. coli Mu890), in the test with K. pneumoniae Mu55 and against K. pneumoniae Mu670 was “(R)” throughout. Besides, the “FAST antibiotic-induced scatter signal change” value with E. coli strain Mu14S was “remained statistically unchanged”; with E. coli strain Mu890, “indistinguishable from those of the no-antibiotic control”. Also, the “PB-sQF FAST susceptibility” value in test [1] is “resistant”. In [2], the “scattered light histograms change” value is “do not significantly change”.
As to `CN(C)[C@@H]1C(O)=C(C(N)=O)C(=O)[C@@]2(O)C(O)=C3C(=O)c4c(O)cccc4[C@@](C)(O)[C@H]3C[C@@H]12` [Tetracycline], the minimal inhibitory concentration (MIC) in the test on A. nosocomialis M2 (setting [6]) was 1 µg/mL (≈ 2.25 µM); with A. nosocomialis M2, 1 µg/mL (≈ 2.25 µM); with E. coli Mu14S (setting [7]) it was greater than 64 µg/mL; in the test with E. coli Mu14S, greater than 64 µg/mL; in the test with E. coli Mu890 (E. coli Mu890), 1 µg/mL (≈ 2.25 µM); with E. coli Mu890 (E. coli Mu890, listed as tetracycline), 2 µg/mL (≈ 4.5 µM). Further, the MIC is 1 µg/mL (≈ 2.25 µM) in the test on E. coli Mu890 (setting [8]), greater than 64 µg/mL with K. pneumoniae Mu55 (setting [9]), greater than 64 µg/mL with K. pneumoniae Mu55 and 2 µg/mL (≈ 4.5 µM) in the test on K. pneumoniae Mu670 (setting [9]). Besides, the “MIC (S/I/R)” value against A. nosocomialis M2 is reported as “(S)”; against E. coli Mu14S it was “(R)”; against E. coli Mu890 (E. coli Mu890), “(S)”; in the test with K. pneumoniae Mu55 it was “(R)”; in the test on K. pneumoniae Mu670, “(S)”.
Turning to `CC1(C)S[C@@H]2[C@H](NC(=O)Cc3ccccc3)C(=O)N2[C@H]1C(=O)O` [penicillin g], in test [3], the “1×MIC” value worked out at 32 µg/mL. In test [4], the “PB-sQF AST susceptibility at low counts” value is on record as “sensitive”. Also, the “cytometric data, growth inhibition” value in test [5] (1000 CFU/mL E. coli spiked sheep blood, 1×MIC, 5 hours) is “clear growth inhibition”. The PB-sQF distance result in test [5] (1000 CFU/mL and 10^5 CFU/mL spiked sheep blood, from 1/16×MIC to 1×MIC) is reported as “clear increment of distance increases”. In addition, in the test on 100% sheep blood only, the “cytometric data of blood-only samples” value is “remained very similar to each other”.
